Experimental data published in paper PMC4232785, “RP-HPTLC Retention Data in Correlation with the In-silico ADME Properties of a Series of s-triazine Derivatives” (Iranian Journal of Pharmaceutical Research : IJPR, 2014).

Experiment: RP-HPTLC retention (RM0, lipophilicity parameter) on RP-18W/UV254 plates
Format: physicochemical
Method: Precoated RP-18W/UV254 plates (Macherey-Nagel GmbH and Co., Düren, Germany) were used for RP HPTLC analysis. Investigated solvent mixtures used as mobile phases: acetone-water (φ = 0.5 - 0.8; v/v), acetonitrile-water (φ = 0.5 - 0.9; v/v), methanol-water (φ = 0.65 - 0.95; v/v), 2-propanol-water (φ = 0.4 - 0.7; v/v), tetrahydrofuran-water (φ = 0.5 - 0.75; v/v).
The investigated compounds were dissolved in an appropriate solvent, methanol, 1 mg mL^-1) and the solutions (0.2 μL) were separately spotted into the plates. All the reagents used were of analytical purity. The plates were developed by the ascending technique at room temperature without previous saturation of the chamber with mobile phase. All measurements were carried out at ambient temperature. After drying of the plates, the spots were visualized under UV light at λ = 254 nm. RF values were calculated as average from three measurements for each solute-mobile phase combination. For subsequent calculations mean RM values were used; these were calculated by using the formula:
Equation (1) RM=log(1/RF-1)
The calculated RM values for different concentrations of organic solvent were used to check the linearity of their relationship with the volume fraction of organic modifier according to the equation ([23]):
Where φ is the volume fraction of organic solvent in the mobile phase, RM^0 is the intercept obtained by extrapolation to φ = 0% of modifier, and S is the slope of the linear plot. Equations (1) and (2) served for deriving data for further QSAR studies.

[1] = RP-18W/UV254, 2-propanol – water (φ = 0.4 - 0.7)
[2] = RP-18W/UV254, acetone – water (φ = 0.5 - 0.8)
[3] = RP-18W/UV254, acetonitrile – water (φ = 0.5 - 0.9)
[4] = RP-18W/UV254, methanol – water (φ = 0.65 - 0.95)
[5] = RP-18W/UV254, tetrahydrofuran - water (φ = 0.5 - 0.75)

RM^0 (retention parameter, intercept at φ = 0% modifier) [1]	RM^0 (retention parameter, intercept at φ = 0% modifier) [2]	RM^0 (retention parameter, intercept at φ = 0% modifier) [3]	RM^0 (retention parameter, intercept at φ = 0% modifier) [4]	RM^0 (retention parameter, intercept at φ = 0% modifier) [5]	Compound
1.900	3.185	2.110	2.457	3.439	CC(Nc1nc(Cl)nc(NC(C)c2ccccc2)n1)c1ccccc1 (centres unmarked) [I.1]
2.525	3.580	2.786	3.188	3.567	Cc1ccc(C(C)Nc2nc(Cl)nc(NC(C)c3ccc(C)cc3)n2)cc1 (centres unmarked) [I.2]
2.617	3.839	2.887	3.976	3.538	CC(Nc1nc(Cl)nc(NC(C)c2ccc(Cl)cc2)n1)c1ccc(Cl)cc1 (centres unmarked) [I.3]
2.764	4.303	2.896	4.407	3.351	CC(Nc1nc(Cl)nc(NC(C)c2ccc(Br)cc2)n1)c1ccc(Br)cc1 (centres unmarked) [I.4]
2.183	3.743	2.388	3.181	3.289	CC1(Nc2nc(Cl)nc(NC3(C)CCCC3)n2)CCCC1 [II.1]
2.384	3.935	2.753	3.320	3.401	CC1(Nc2nc(Cl)nc(NC3(C)CCCCC3)n2)CCCCC1 [II.2]
3.013	4.218	3.000	4.530	4.071	CC1(Nc2nc(Cl)nc(NC3(C)CCCCCC3)n2)CCCCCC1 [II.3]
2.251	4.118	2.356	3.440	3.426	Clc1nc(NC2CCCCC2)nc(NC2CCCCC2)n1 [III.1]
2.769	4.626	3.284	3.998	3.611	CN(c1nc(Cl)nc(N(C)C2CCCCC2)n1)C1CCCCC1 [III.2]
2.691	4.019	3.101	3.980	3.387	Clc1nc(NC2CCCCC2)nc(N(c2ccccc2)C2CCCCC2)n1 [III.3]
2.747	4.693	3.556	5.295	3.902	Clc1nc(N(c2ccccc2)C2CCCCC2)nc(N(c2ccccc2)C2CCCCC2)n1 [III.4]
1.118	1.672	1.497	1.526	1.733	CC1(Nc2nc(Cl)nc(Cl)n2)CCCC1 [IV.1]
1.779	2.257	1.956	1.756	2.222	CC1(Nc2nc(Cl)nc(Cl)n2)CCCCCC1 [IV.3]
